# Results published in publication PMC4917254 (PLoS ONE, 2016).
# Where “and” joins values, the source holds several entries; their conditions need not be identical. Equal values may be shown once. Where a name gives a salt, the structure may show the parent alone. Read-outs that look alike come from different tables or passages of the source.
# Experiments:
# α1β2γ2L GABAARs = target: T1, α1β2γ2L GABAARs (Homo sapiens, UniProt P14867+P18507+P47870); assay: Two-electrode voltage clamp, recombinant α1β2γ2L GABAARs in Xenopus oocytes; type: cell-based; conditions: for nH ± SEM: Hill slope of GABA curve, α1β2γ2L
# T1 construct: expressed in transfected cells; host or cells: Xenopus laevis oocytes injected with mRNA (1:1:3)
# Experimental: (§1) The expression and functional characterisation of recombinant GABAARs in Xenopus oocytes were performed as previously described. The subunit mRNA ratios for the expression of αβγ receptors were adjusted according to the β subunit isoform in that when β2-containing receptors were expressed, a 1:1:3 ratio was used, whereas when β1- or β3-containing receptors were expressed, a 10:1:10 ratio was used to minimise the expression of homomeric β1/3 homomeric receptors. To express α4β2δ receptors, a 5:1:5 ratio was used, and the pharmacological characteristics of this receptor were as described in Hartiadi et al. (2016). The injection ratio used for the expression of α1β2 and β2γ2L receptors were 1:1 and 1:3 respectively. Approximately 2 to 10 ng of mRNA mixture was injected into each oocyte. Injected oocytes were stored in ND96 storage solution supplemented with 50 μg/mL gentamycin and tetracycline at 18°C.
# (§2) Two-electrode voltage clamp recordings were performed on oocytes 2–5 days post-injection at room temperature (20–25°C) using a GeneClamp 500B amplifier (ADInstruments, Sydney, NSW, Australia) or a Warner OC-725C Oocyte Clamp (Warner Instrument Corp, Hamden, CT, USA). All experiments were conducted at a holding potential of –60 mV, and data were acquired with a PowerLab 2/25, and LabChart (version 5.0.2) software (ADInstruments, Sydney, NSW, Australia). The recording microelectrodes (0.2–1.1 MΩ) were generated from capillary glass (Harvard Apparatus, Holliston, MA, USA) using a single-stage glass microelectrode puller (Narishige, Tokyo, Japan), and were filled with 3 M KCl solution.
# (§3) Perfusates containing these chemicals were made up fresh before each application. […] All experiments were performed using at least two different batches of oocytes.
# (§4) Prism (version 5.04; GraphPad Software, La Jolla, CA, USA) was used for data analysis. All data are presented as mean ± standard error of the means (SEM).
# (§5) Alternatively, the modulatory effect was expressed as the fold of potentiation, as shown in Eq 3.
# α1M236Wβ2γ2L GABAARs = target: T2, α1M236Wβ2γ2L GABAARs (Homo sapiens, UniProt P14867+P18507+P47870, M263W); assay: Two-electrode voltage clamp, mutant α1M236Wβ2γ2L GABAARs in Xenopus oocytes; type: cell-based; conditions: for agonist effect, mutant vs wild-type: p > 0.05, n = 5
# T2 construct: expressed in transfected cells; host or cells: Xenopus laevis oocytes injected with mRNA
# From the text: (§6) Human complementary DNAs (cDNAs) of GABAAR subunits used in this study and their corresponding subcloned vectors include: α1, β1, β2 and γ2L in pCDM8; α2 and α3 in pCDNA3.1; α4 and δ in pCDNA1/Amp; α5 in pCDNA3; β3 in pGEMHE. […] Linearised plasmid DNAs were used as templates for the synthesis of messenger RNAs (mRNAs) using the mMessage mMachine T7 transcript kit from Ambion (Austin, TX, USA). Mutations were introduced to various GABAAR subunits of interest using the QuikChange II Site-Directed Mutagenesis Kit. For the α1M236W point mutation, forward primer 5′-[…]-3′ and reverse primer 5′-[…]-3′ were used. For the β2M286W point mutation, forward primer 5′-[…]-3′ and reverse primer 5′- […]-3′ were used. For the β3N265M point mutation, forward primer 5′- […]-3′ and reverse primer 5′-[…]-3′ were used.
# as §1, §2, §3, §4, §5
# α4β2δ GABAARs = target: T3, α4β2δ GABAARs (Homo sapiens, UniProt O14764+P47870+P48169); assay: Two-electrode voltage clamp, recombinant α4β2δ GABAARs in Xenopus oocytes; type: cell-based; conditions: for nH ± SEM: Hill slope of GABA curve, α4β2δ
# T3 construct: expressed in transfected cells; host or cells: Xenopus laevis oocytes injected with mRNA (5:1:5)
# Experimental: as §1, §2, §3, §4, §5
# α1β3γ2L GABAARs = target: T4, α1β3γ2L GABAARs (Homo sapiens, UniProt P14867+P18507+P28472); assay: Two-electrode voltage clamp, recombinant α1β3γ2L GABAARs in Xenopus oocytes; type: cell-based
# T4 construct: expressed in transfected cells; host or cells: Xenopus laevis oocytes injected with mRNA (10:1:10)
# Experimental: as §1
# (§7) Two-electrode voltage clamp recordings were performed on oocytes 2–5 days post-injection at room temperature (20–25°C) using a GeneClamp 500B amplifier (ADInstruments, Sydney, NSW, Australia) or a Warner OC-725C Oocyte Clamp (Warner Instrument Corp, Hamden, CT, USA). […]
# as §5
# [1] = tested on: α1β2, β2γ2L, αxβ2γ2L (x = 1, 2, 3 or 5), α1βxγ2L (x = 1, 2 or 3) and α4β2δ GABAARs; assay: Kavain potentiation compared across GABAAR subtypes (two-electrode voltage clamp); type: cell-based, human; conditions: 300 μM kavain, GABA EC3-7 (EC30 at α4β2δ), Tukey's test
# Experimental: as §1, §7
# Alternatively, the modulatory effect was expressed as the fold of potentiation, as shown in Eq 3. […]
# α1β2M286Wγ2L GABAARs = target: T5, α1β2M286Wγ2L GABAARs (Homo sapiens, UniProt P14867+P18507+P47870, M310W); assay: Two-electrode voltage clamp, mutant α1β2M286Wγ2L GABAARs in Xenopus oocytes; type: cell-based
# T5 construct: expressed in transfected cells; host or cells: Xenopus laevis oocytes injected with mRNA
# From the text: as §6, §1, §2, §3, §4, §5
# α1β3N265Mγ2L GABAARs = target: T6, α1β3N265Mγ2L GABAARs (Homo sapiens, UniProt P14867+P18507+P28472, N290M); assay: Two-electrode voltage clamp, mutant α1β3N265Mγ2L GABAARs in Xenopus oocytes; type: cell-based
# T6 construct: expressed in transfected cells; host or cells: Xenopus laevis oocytes injected with mRNA (10:1:10)
# From the text: as §6, §1, §2, §3, §4, §5
# β2γ2L GABAARs = target: T7, β2γ2L GABAARs (Homo sapiens, UniProt P18507+P47870); assay: Two-electrode voltage clamp, recombinant β2γ2L GABAARs in Xenopus oocytes; type: cell-based; conditions: Hill slope of GABA curve
# T7 construct: expressed in transfected cells; host or cells: Xenopus laevis oocytes injected with mRNA
# Experimental: as §1, §7, §5
# α5β2γ2L GABAARs = target: T8, α5β2γ2L GABAARs (Homo sapiens, UniProt P18507+P31644+P47870); assay: Two-electrode voltage clamp, recombinant α5β2γ2L GABAARs in Xenopus oocytes; type: cell-based; conditions: Hill slope of GABA curve
# T8 construct: expressed in transfected cells; host or cells: Xenopus laevis oocytes injected with mRNA (1:1:3)
# Experimental: as §1, §7, §5
# α3β2γ2L GABAARs = target: T9, α3β2γ2L GABAARs (Homo sapiens, UniProt P18507+P34903+P47870); assay: Two-electrode voltage clamp, recombinant α3β2γ2L GABAARs in Xenopus oocytes; type: cell-based; conditions: Hill slope of GABA curve
# T9 construct: expressed in transfected cells; host or cells: Xenopus laevis oocytes injected with mRNA (1:1:3)
# Experimental: as §1, §7, §5
# α1β1γ2L GABAARs = target: T10, α1β1γ2L GABAARs (Homo sapiens, UniProt P14867+P18505+P18507); assay: Two-electrode voltage clamp, recombinant α1β1γ2L GABAARs in Xenopus oocytes; type: cell-based; conditions: Hill slope of GABA curve
# T10 construct: expressed in transfected cells; host or cells: Xenopus laevis oocytes injected with mRNA (10:1:10)
# Experimental: as §1, §7, §5
# α2β2γ2L GABAARs = α2β2γ2L GABAARs (Homo sapiens, UniProt P18507+P47869+P47870); conditions: Hill slope of GABA curve
# Experimental: as §1, §7, §5
compound,measurement,setting,value
CN1C(=O)CN=C(c2ccccc2)c2cc(Cl)ccc21 [diazepam],"enhancement of GABA current, normalised to 10 μM GABA responses",α1β2γ2L GABAARs,260 ± 4.2%
same,flumazenil sensitivity of diazepam enhancement,α1β2γ2L GABAARs,flumazenil-sensitive
CCOC(=O)c1ncn2c1CN(C)C(=O)c1cc(F)ccc1-2 [flumazenil],effect of flumazenil alone on GABA responses,α1β2γ2L GABAARs; 10 μM GABA + 10 μM flumazenil,did not alter GABA responses
DL-kavain,"current elicited by kavain alone, % of the GABA EC3 responses","α1M236Wβ2γ2L GABAARs; 300 μM kavain, n = 6",approximately 63 ± 5.2%
same,"potentiation by co-application, % of GABA EC3 responses","α1M236Wβ2γ2L GABAARs; GABA EC3 + 300 μM kavain, n = 6, kavain-elicited current not deducted",220 ± 11%
same,increase of the maximal response evoked by GABA,"α4β2δ GABAARs; 300 μM kavain, p < 0.0001",two fold
same,GABA-enhancing action of kavain in the presence of flumazenil,α1β2γ2L GABAARs; 10 μM GABA + 300 μM kavain + 10 μM flumazenil,unaffected in the presence of flumazenil
same,"enhancement of GABA current, normalised to 10 μM GABA responses","α1β2γ2L GABAARs; 10 μM GABA + 300 μM kavain, n = 5",260 ± 11%
same,"intrinsic agonist activity, currents relative to the 10 mM GABA responses","α1β2γ2L GABAARs; 300 μM kavain alone, n = 5",< 1%
same,enhancement of GABA-elicited responses,"α1β2γ2L GABAARs; 300 μM kavain, GABA EC3 (10 μM), n = 6",170 ± 23%
same,enhancement depending on GABA concentration,"α1β2γ2L GABAARs; 300 μM kavain, GABA concentration-response curve",modest enhancement at GABA concentrations below EC45
same,"current elicited by kavain alone, % of the GABA EC3 responses","α1β2γ2L GABAARs; 300 μM kavain, wild-type, n = 4",15 ± 3.6%
same,"potentiation by co-application, % of GABA EC3 responses","α1β2γ2L GABAARs; GABA EC3 + 300 μM kavain, n = 4, kavain-elicited current not deducted",250 ± 7.8%
same,kavain modulation of GABA EC3 responses,α1β3γ2L GABAARs; GABA EC3 + 300 μM kavain,260 ± 18%
same,subtype selectivity of potentiation,[1],no significant subtype selectivity
same,"current elicited by kavain alone, % of the GABA EC3 responses","α1β2M286Wγ2L GABAARs; 300 μM kavain, p < 0.0001 vs wild-type",96 ± 5.8%
same,"modulatory effect on GABA EC3-elicited responses, % of GABA EC3","α1β2M286Wγ2L GABAARs; GABA EC3 + 300 μM kavain, p > 0.05 vs α1β2γ2L",270 ± 8.7%
same,"current elicited by kavain alone, % of GABA EC3 responses",α1β3N265Mγ2L GABAARs; 300 μM kavain,3.3 ± 1.0%
same,kavain modulation of GABA EC3 responses,"α1β3N265Mγ2L GABAARs; GABA EC3 + 300 μM kavain, p < 0.001 vs α1β3γ2L",110 ± 14%
"CCOC(=O)c1cncn1[C@H](C)c1ccccc1 [etomidate, Etomidate hydrochloride (HCl)]","modulatory effect on GABA EC3 (1 μM) responses, mutant vs wild-type","α1M236Wβ2γ2L GABAARs; 3 μM etomidate, p < 0.0001, n = 5",significantly attenuated
same,"agonist effect, mutant vs wild-type",α1M236Wβ2γ2L GABAARs; 30 μM etomidate,not significantly different from wild-type receptors
same,"enhancement of GABA EC3 responses, % of maximal GABA responses",α1β2γ2L GABAARs,53 ± 2.6% and 45 ± 3.1%
same,etomidate sensitivity (modulatory and agonist effects),α1β2M286Wγ2L GABAARs; data not shown,abolished
same,modulation (3 μM) and activation (30 μM) of the point-mutated receptors,α1β3N265Mγ2L GABAARs; data not shown,did not modulate (at 3 μM) nor activate (at 30 μM)
CC(C)c1cccc(C(C)C)c1O [propofol],"modulatory effect on GABA EC3 (1 μM) responses, mutant vs wild-type","α1M236Wβ2γ2L GABAARs; 10 μM propofol, p < 0.01, n = 5",significantly attenuated
same,"agonist effect, mutant vs wild-type",α1M236Wβ2γ2L GABAARs; 100 μM propofol,not significantly different from wild-type receptors
same,"elicited current, % of the maximal propofol responses",α1β2γ2L GABAARs,91 ± 1.5%
same,"enhancement of GABA EC3 responses, % of the maximal GABA responses",α1β2γ2L GABAARs,45 ± 3.5% and 50 ± 4.8%
same,"receptor modulation in the presence of GABA EC3 (1 μM), mutant vs wild-type","α1β2M286Wγ2L GABAARs; 10 μM propofol, p < 0.001",significantly diminished
same,"direct activation, mutant vs wild-type","α1β2M286Wγ2L GABAARs; 100 μM propofol, p > 0.05",unaffected
same,propofol activity at the point-mutated receptors,α1β3N265Mγ2L GABAARs,Pronounced attenuation
"NCCCC(=O)O [GABA, γ-Aminobutyric acid]",nH ± SEM,"α1M236Wβ2γ2L GABAARs; Hill slope of GABA curve, mutant printed as α1M286Wβ2γ2L in table",0.80 ± 0.053
same,nH ± SEM,α4β2δ GABAARs,0.70 ± 0.095
same,nH ± SEM,α4β2δ GABAARs; + 300 μM kavain,0.59 ± 0.11
same,nH ± SEM,β2γ2L GABAARs,0.63 ± 0.034
same,nH ± SEM,α5β2γ2L GABAARs,1.0 ± 0.078
same,nH ± SEM,α1β2γ2L GABAARs,0.99 ± 0.062
same,nH ± SEM,α1β2γ2L GABAARs; + 300 μM kavain,0.75 ± 0.026
same,nH ± SEM,α3β2γ2L GABAARs,1.2 ± 0.054
same,nH ± SEM,"α1β3γ2L GABAARs; Hill slope of GABA curve, α1β3γ2L",1.2 ± 0.070
same,nH ± SEM,"α1β2M286Wγ2L GABAARs; Hill slope of GABA curve, α1β2M286Wγ2L",1.1 ± 0.036
same,nH ± SEM,α1β1γ2L GABAARs,1.1 ± 0.059
same,nH ± SEM,α2β2γ2L GABAARs,1.4 ± 0.041
same,nH ± SEM,"α1β3N265Mγ2L GABAARs; Hill slope of GABA curve, α1β3N265Mγ2L",1.4 ± 0.083
